Measurements as given in PubChem BioAssay AID330 (DTP/NCI, 2004).
Values joined by “and” are separate entries in the source; they are usually repeats but may differ in a detail not shown here. Equal entries are not always repeated. Inconclusive results and toxic doses are left out. Rule for the calls: active = survival T/C of 150% or more; inactive = T/C below 125% in these data.

Test system: P388 leukemia ip, CD2F1 mice, survival T/C
Assay: NCI In Vivo Anticancer Drug Screen. Data for tumor model P388 Leukemia (intraperitoneal) in CD2F1 (CDF1) mice
Settings: endpoint: median survival time, higher = longer survival
Procedure, shortened: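 Mice carrying the transplanted tumor received test compound or vehicle. Survival was recorded in each group, and the value is the treated-group measurement divided by that of the vehicle-treated control group.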

[1] = dose: 50.0 mg/kg/injection, schedule: Q01DX005 (ip), vehicle: saline
[2] = dose: 100.0 mg/kg/injection, schedule: Q01DX005 (ip), vehicle: saline
[3] = dose: 200.0 mg/kg/injection, schedule: Q01DX005 (ip), vehicle: saline
[4] = dose: 50.0 mg/kg/injection, schedule: Q01DX005 (ip), vehicle: Klucel (hydroxypropylcellulose) (HPC)
[5] = dose: 100.0 mg/kg/injection, schedule: Q01DX005 (ip), vehicle: Klucel (hydroxypropylcellulose) (HPC)
[6] = dose: 200.0 mg/kg/injection, schedule: Q01DX005 (ip), vehicle: Klucel (hydroxypropylcellulose) (HPC)
[7] = dose: 50.0 mg/kg/injection, schedule: Q01DX005 (ip), vehicle: saline with Tween-80
[8] = dose: 100.0 mg/kg/injection, schedule: Q01DX005 (ip), vehicle: saline with Tween-80
[9] = dose: 200.0 mg/kg/injection, schedule: Q01DX005 (ip), vehicle: saline with Tween-80
[10] = dose: 12.5 mg/kg/injection, schedule: Q01DX009 (ip), vehicle: saline with Tween-80
[11] = dose: 25.0 mg/kg/injection, schedule: Q01DX009 (ip), vehicle: saline with Tween-80
[12] = dose: 12.5 mg/kg/injection, schedule: Q01DX005 (ip), vehicle: saline
[13] = dose: 25.0 mg/kg/injection, schedule: Q01DX005 (ip), vehicle: saline
[14] = dose: 200.0 mg/kg/injection, schedule: Q01DX001 (ip), vehicle: Klucel (hydroxypropylcellulose) (HPC)

Measured: T/C

OCC1OC(Oc2ncccn2)C(O)C1O (stereo unspecified)
inactive: [1] 97 % of control | dose: 50.0 mg/kg/injection, schedule: Q01DX005 (ip), vehicle: suspension in saline 99 % of control | [2] 99 % of control | dose: 100.0 mg/kg/injection, schedule: Q01DX005 (ip), vehicle: suspension in saline 99 % of control | [3] 101 % of control | dose: 200.0 mg/kg/injection, schedule: Q01DX005 (ip), vehicle: suspension in saline 98 % of control | dose: 400.0 mg/kg/injection, schedule: Q01DX005 (ip), vehicle: saline 104 % of control | dose: 400.0 mg/kg/injection, schedule: Q01DX005 (ip), vehicle: suspension in saline 99 % of control

OCCSc1nc2ccc(N=Cc3ccccc3O)cc2s1
inactive: dose: 50.0 mg/kg/injection, schedule: Q01DX009 (ip), vehicle: Klucel (hydroxypropylcellulose) (HPC) 100 % of control | dose: 100.0 mg/kg/injection, schedule: Q01DX009 (ip), vehicle: Klucel (hydroxypropylcellulose) (HPC) 100 % of control | dose: 200.0 mg/kg/injection, schedule: Q01DX009 (ip), vehicle: Klucel (hydroxypropylcellulose) (HPC) 90 % of control

O/N=C/C(=NCc1ccccn1)NO
inactive: dose: 60.0 mg/kg/injection, schedule: Q01DX005 (ip), vehicle: Klucel (hydroxypropylcellulose) (HPC) 107 % of control | dose: 120.0 mg/kg/injection, schedule: Q01DX005 (ip), vehicle: Klucel (hydroxypropylcellulose) (HPC) 103 % of control | dose: 240.0 mg/kg/injection, schedule: Q01DX005 (ip), vehicle: Klucel (hydroxypropylcellulose) (HPC) 103 % of control

BrCCc1ccc2ccccc2c1Br
inactive: dose: 50.0 mg/kg/injection, schedule: Q01DX005 (ip), vehicle: distilled water + Tween-80 + alcohol 111 % of control | dose: 100.0 mg/kg/injection, schedule: Q01DX005 (ip), vehicle: distilled water + Tween-80 + alcohol 109 % of control | dose: 200.0 mg/kg/injection, schedule: Q01DX005 (ip), vehicle: distilled water + Tween-80 + alcohol 105 % of control

CC1CC(c2ccccc2)(c2ccccc2)C(=O)C(C)N1C (stereo unspecified)
inactive: [4] 107 % of control | [5] 105 % of control | [6] 97 % of control

CCCCn1cnc2c(=S)nc[nH]c21
inactive: [7] 94 % of control | [8] 105 % of control | [9] 102 % of control

CCN1CC2c3cc(OC)c(OC)cc3CC(c3ccccc3)C2C1 (stereo unspecified)
inactive: dose: 6.25 mg/kg/injection, schedule: Q01DX009 (ip), vehicle: saline with Tween-80 120 % of control | [10] 120 % of control | [11] 100 % of control

CC(C=O)[Se]c1ccccc1 (stereo unspecified)
inactive: dose: 60.0 mg/kg/injection, schedule: Q01DX005 (ip), vehicle: saline with Tween-80 100 % of control

CC1=CC(C)C[N+](C)(C)C1 (stereo unspecified)
inactive: dose: 3.12 mg/kg/injection, schedule: Q01DX005 (ip), vehicle: saline 104 % of control | dose: 6.25 mg/kg/injection, schedule: Q01DX005 (ip), vehicle: saline 103 % of control | [12] 100 % of control | [13] 94 % of control

COC(=O)c1[se]c(=[Se])[se]c1C(=O)OC
inactive: [14] 88 % of control

OCCN1CCCN(CCCN2c3ccccc3Sc3ccc(C(F)(F)F)cc32)CC1
inactive: dose: 6.25 mg/kg/injection, schedule: Q01DX005 (ip), vehicle: saline with Tween-80 97 % of control | dose: 12.5 mg/kg/injection, schedule: Q01DX005 (ip), vehicle: saline with Tween-80 102 % of control | dose: 25.0 mg/kg/injection, schedule: Q01DX005 (ip), vehicle: saline with Tween-80 118 % of control

COC(=O)C(Cc1cnc[nH]1)NC(=O)C(Cc1c[nH]c2ccccc12)NC(=O)OC(C)(C)C (stereo unspecified)
inactive: dose: 12.5 mg/kg/injection, schedule: Q01DX009 (ip), vehicle: other 100 % of control | dose: 25.0 mg/kg/injection, schedule: Q01DX009 (ip), vehicle: other 96 % of control | dose: 50.0 mg/kg/injection, schedule: Q01DX009 (ip), vehicle: other 96 % of control | dose: 100.0 mg/kg/injection, schedule: Q01DX009 (ip), vehicle: other 95 % of control | dose: 200.0 mg/kg/injection, schedule: Q01DX009 (ip), vehicle: other 91 % of control

CCOC(=O)Nc1ccc2c(c1[N+](=O)[O-])c1cc([N+](=O)[O-])cc([N+](=O)[O-])c1n2CC
inactive: [7] 98 % of control | [8] 90 % of control | [9] 86 % of control

N=C(N)c1ccc(NC(=O)c2ccc(C(=O)Nc3ccc(C(=N)N)cc3)c(N)c2)cc1
inactive: [7] 110 % of control | [8] 107 % of control | [9] 87 % of control

Nc1nc(SCc2ccccn2)c2[nH]cnc2n1
inactive: dose: 66.0 mg/kg/injection, schedule: Q04DX003 (ip), vehicle: Klucel (hydroxypropylcellulose) (HPC) 122 % of control

O=C1CCOc2cccc(c2)OCCC(=O)OCCCOC(=O)CCOc2cccc(c2)OCCC(=O)OCCCO1
inactive: [12] 103 % of control | [13] 107 % of control | [4] 96 % of control | [1] 98 % of control

Cc1ccc(Sc2cccc3c(C)c4cccc5c4c(c23)C[S+]5c2ccc(C)cc2)cc1 (stereo unspecified)
inactive: dose: 2.0 mg/kg/injection, schedule: Q01DX009 (ip), vehicle: saline with Tween-80 104 % of control | dose: 3.0 mg/kg/injection, schedule: Q01DX009 (ip), vehicle: saline with Tween-80 122 % of control

O=S(=O)(O)Oc1c(S(=O)(=O)O)c(S(=O)(=O)O)c(O)c(S(=O)(=O)O)c1S(=O)(=O)O
inactive: dose: 25.0 mg/kg/injection, schedule: Q01DX001 (ip), vehicle: saline 111 % of control | dose: 50.0 mg/kg/injection, schedule: Q01DX001 (ip), vehicle: saline 113 % of control | dose: 100.0 mg/kg/injection, schedule: Q01DX001 (ip), vehicle: saline with Tween-80 103 % of control | dose: 100.0 mg/kg/injection, schedule: Q01DX001 (ip), vehicle: saline 94 % of control

CCS(CC)=NC(=O)C(Cl)Cl
inactive: dose: 50.0 mg/kg/injection, schedule: Q01DX001 (ip), vehicle: Klucel (hydroxypropylcellulose) (HPC) 100 % of control and 104 % of control and 97 % of control | dose: 100.0 mg/kg/injection, schedule: Q01DX001 (ip), vehicle: Klucel (hydroxypropylcellulose) (HPC) 99 % of control and 100 % of control and 94 % of control | [14] 99 % of control and 100 % of control and 123 % of control | dose: 400.0 mg/kg/injection, schedule: Q01DX001 (ip), vehicle: Klucel (hydroxypropylcellulose) (HPC) 111 % of control and 95 % of control

CCCOc1ccc2c(NCCCCCCNc3c4ccccc4nc4cc(OCCC)ccc34)c3ccccc3nc2c1
inactive: dose: 0.62 mg/kg/injection, schedule: Q## X009 (ip), vehicle: lactic acid 121 % of control | dose: 2.5 mg/kg/injection, schedule: Q## X009 (ip), vehicle: lactic acid 120 % of control | dose: 5.0 mg/kg/injection, schedule: Q## X009 (ip), vehicle: lactic acid 105 % of control

CCC1(CC)C(=O)NC(=O)NC1(OC)OC
inactive: [1] 98 % of control | [2] 106 % of control | [3] 100 % of control

COC(=O)/C=C(\C(=O)OC)C1=C(N2CCCC2)CC(C)(C)CC1=O
inactive: [4] 102 % of control | [5] 100 % of control and 95 % of control | [6] 100 % of control and 101 % of control

N#CC(C#N)=C(C#N)c1ccccc1
inactive: [10] 90 % of control | [11] 113 % of control

CCC1CN2CCc3cc(OC)c(OC)cc3C2CC1Cl (stereo unspecified)
inactive: dose: 12.5 mg/kg/injection, schedule: Q01DX009 (ip), vehicle: saline 90 % of control | dose: 25.0 mg/kg/injection, schedule: Q01DX009 (ip), vehicle: saline 90 % of control | dose: 50.0 mg/kg/injection, schedule: Q01DX009 (ip), vehicle: saline with Tween-80 101 % of control | dose: 50.0 mg/kg/injection, schedule: Q01DX009 (ip), vehicle: saline 96 % of control
